Structures are written as SMILES.

This test has as its target T1, IL-17A/A (Homo sapiens, UniProt Q16552).
T1 construct: purchased Genscript Z03228
T1 sequence (Q16552 24-155): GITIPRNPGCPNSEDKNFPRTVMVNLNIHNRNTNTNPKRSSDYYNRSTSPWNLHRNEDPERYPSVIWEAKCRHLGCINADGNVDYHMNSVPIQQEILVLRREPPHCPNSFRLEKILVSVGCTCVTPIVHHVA
In words: IL-17A/A HEK-Blue Cell Assay. In kind it is cell-based. To be noted: HEK-Blue IL-17A reporter cell line, SEAP readout at A630, 20 hours incubation with IL-17A/A, top concentration 10 uM, 1 uM or 0.3 uM; for IC50: read-out: IL-17A/A inhibition (pIC50) (converted).

With `CCc1nonc1C(=O)N[C@H](C(=O)Nc1ccc([C@H](C)[C@@H](NC(=O)[C@@H](C)F)C(=O)N2CCN(C)CC2)cc1F)[C@H]1CC[C@H](C)CC1` [Compound 500], the IC50 was less than 10 nM.

Turning to `CCC(=O)N[C@@H](C(=O)N1CCN(C)CC1)[C@@H](C)c1ccc(NC(=O)[C@@H](NC(=O)c2ccnn2CC)C2CCCCCC2)cc1` [Compound 297], the IC50 was 10 to 100 nM.

As to `CCc1nonc1C(=O)N[C@H](C(=O)Nc1ccc([C@H](C)[C@@H](NC(=O)N2CCCC2)C(=O)N2CCN(C)CC2)cc1F)[C@H]1CC[C@H](C)CC1` [Compound 515], the IC50 is 10 to 100 nM.

For `CCC(=O)N[C@@H](C(=O)N1C[C@@H](C)N[C@@H](C)C1)[C@@H](C)c1ccc(NC(=O)[C@@H](NC(=O)c2ccnn2CC)[C@H]2CC[C@H](C)CC2)c(F)c1` [Compound 425], the IC50 was 10 to 100 nM.

Turning to `CCn1nccc1C(=O)N[C@H](C(=O)Nc1ccc([C@H](C)[C@@H](NC(=O)c2cnsc2)C(=O)N2CCN(C)CC2)cc1F)[C@H]1CC[C@H](C)CC1` [Compound 487], the “IL-17A/A inhibition (pIC50)” value is on record as “B (8>B≥7 as B)”.

As for `CCC(=O)N[C@@H](C(=O)N(C)Cc1cncn1C)[C@@H](C)c1ccc(NC(=O)[C@@H](NC(=O)c2nonc2CC)[C@H]2CC[C@H](C)CC2)c(F)c1` [Compound 455], the IC50 was 100 to 10000 nM.

In the case of `CCn1nccc1C(=O)N[C@H](C(=O)Nc1ccc([C@H](C)[C@@H](NC(=O)c2cc(C#N)cs2)C(=O)N2CCN(C)CC2)cc1F)C1CCCCC1` [Compound 624], the IC50 is 100 to 10000 nM.

Turning to `CCC(=O)N[C@@H](C(=O)N1CCN(C)CC1)[C@@H](C)c1ccc(NC(=O)[C@H](NC(=O)c2ccnn2CC)[C@H]2CC[C@H](C)CC2)c(F)c1` [Compound 541], the “IL-17A/A inhibition (pIC50)” value was “X3b (compounds were evaluated up to 0.3 uM and inhibited activity at 0.3 uM by less than 20%)”.

For `CCC(=O)N[C@@H](C(=O)N1CCN(C)CC1)[C@@H](C)c1ccc(NC(=O)C(NC(=O)C(F)(F)c2cccc(C#N)c2)[C@@H](C)c2ccccc2)c(F)c1` (some centres unmarked) [Compound 290], the IC50 was less than 10 nM.

For the compound `CCC(=O)N[C@@H](C(=O)N1CCN(C)CC1)[C@@H](C)c1ccc(NC(=O)[C@@H](NC(=O)C(=O)c2ccc(NS(C)(=O)=O)nc2)C2CCCCCC2)c(F)c1` [Compound 626], the IC50 is 100 to 10000 nM.

As for `CCC(=O)N[C@@H](C(=O)N1CCOCC1)[C@@H](C)c1ccc(NC(=O)[C@@H](NC(=O)c2ccnn2CC)C2CCCCCC2)c(F)c1` [Compound 351], the IC50 was 10 to 100 nM.

With `CCC(=O)N[C@H](Cc1ccc(NC(=O)[C@@H](NC(=O)c2cnn3c2SCC3)C2CCCCC2)c(F)c1)C(=O)N1CCN(C)CC1` [Compound 688], the IC50 was 100 to 10000 nM.

Regarding `CCc1nonc1C(=O)N[C@H](C(=O)Nc1ccc([C@H](C)[C@@H](NC(=O)[C@@H]2CCCO2)C(=O)N2CCN(C)CC2)cc1F)[C@H]1CC[C@H](C)CC1` [Compound 498], the IC50 is 10 to 100 nM.

As for `CCn1nccc1C(=O)N[C@H](C(=O)Nc1ccc([C@H](C)[C@@H](NC(=O)c2cnns2)C(=O)N2CCC(C)(O)CC2)cc1F)[C@H]1CC[C@H](C)CC1` [Compound 440], the IC50 is less than 10 nM.

`CCC(=O)N[C@@H](C(=O)N1CCN(C)CC1)[C@@H](C)c1ccc(NC(=O)[C@@H](NC(=O)c2ccnn2CC)[C@H](OC)c2ccc(F)cc2)c(F)c1` [Compound 610]: the IC50 is 100 to 10000 nM.

As for `CCn1nccc1C(=O)N[C@H](C(=O)Nc1ccc([C@H](C)C(NC(=O)C(C)F)C(=O)N2CCN(C)[C@@H](C)C2)cc1F)[C@H]1CC[C@H](C)CC1` (single isomer, unassigned) [Compound 592], the IC50 is 10 to 100 nM.

For `CCC(=O)N[C@@H](C(=O)N1CCN(C)CC1)[C@@H](C)c1ccc(NC(=O)[C@@H](NC(=O)C(F)(F)C23CC(C2)C3)C2CCCCC2)c(F)c1` [Compound 625], the IC50 was 100 to 10000 nM.
